According to ChEMBL document CHEMBL1201862, “PubChem BioAssay data set” (2004):
Calls of active or inactive are those of the source.

Experiments:
[1] = tested on: P388/ADR; assay: cells; format: functional; conditions: Mus musculus
[2] = tested on: SN12K1; assay: cells; format: functional; conditions: Homo sapiens
[3] = tested on: P388; assay: cells; format: functional; conditions: Mus musculus
[4] = target: T1, Apoptotic protease-activating factor 1 (Homo sapiens, UniProt O14727); assay: SAR analysis of small molecule Activators of Apaf-1 in a Fluorescent assay.; format: functional; conditions: read-out: EC50_Mean;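 note: caspase-3 cleavage of fluorogenic Rh110 DEVD substrate downstream of apoptosome activation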
T1 sequence (O14727 whole entry): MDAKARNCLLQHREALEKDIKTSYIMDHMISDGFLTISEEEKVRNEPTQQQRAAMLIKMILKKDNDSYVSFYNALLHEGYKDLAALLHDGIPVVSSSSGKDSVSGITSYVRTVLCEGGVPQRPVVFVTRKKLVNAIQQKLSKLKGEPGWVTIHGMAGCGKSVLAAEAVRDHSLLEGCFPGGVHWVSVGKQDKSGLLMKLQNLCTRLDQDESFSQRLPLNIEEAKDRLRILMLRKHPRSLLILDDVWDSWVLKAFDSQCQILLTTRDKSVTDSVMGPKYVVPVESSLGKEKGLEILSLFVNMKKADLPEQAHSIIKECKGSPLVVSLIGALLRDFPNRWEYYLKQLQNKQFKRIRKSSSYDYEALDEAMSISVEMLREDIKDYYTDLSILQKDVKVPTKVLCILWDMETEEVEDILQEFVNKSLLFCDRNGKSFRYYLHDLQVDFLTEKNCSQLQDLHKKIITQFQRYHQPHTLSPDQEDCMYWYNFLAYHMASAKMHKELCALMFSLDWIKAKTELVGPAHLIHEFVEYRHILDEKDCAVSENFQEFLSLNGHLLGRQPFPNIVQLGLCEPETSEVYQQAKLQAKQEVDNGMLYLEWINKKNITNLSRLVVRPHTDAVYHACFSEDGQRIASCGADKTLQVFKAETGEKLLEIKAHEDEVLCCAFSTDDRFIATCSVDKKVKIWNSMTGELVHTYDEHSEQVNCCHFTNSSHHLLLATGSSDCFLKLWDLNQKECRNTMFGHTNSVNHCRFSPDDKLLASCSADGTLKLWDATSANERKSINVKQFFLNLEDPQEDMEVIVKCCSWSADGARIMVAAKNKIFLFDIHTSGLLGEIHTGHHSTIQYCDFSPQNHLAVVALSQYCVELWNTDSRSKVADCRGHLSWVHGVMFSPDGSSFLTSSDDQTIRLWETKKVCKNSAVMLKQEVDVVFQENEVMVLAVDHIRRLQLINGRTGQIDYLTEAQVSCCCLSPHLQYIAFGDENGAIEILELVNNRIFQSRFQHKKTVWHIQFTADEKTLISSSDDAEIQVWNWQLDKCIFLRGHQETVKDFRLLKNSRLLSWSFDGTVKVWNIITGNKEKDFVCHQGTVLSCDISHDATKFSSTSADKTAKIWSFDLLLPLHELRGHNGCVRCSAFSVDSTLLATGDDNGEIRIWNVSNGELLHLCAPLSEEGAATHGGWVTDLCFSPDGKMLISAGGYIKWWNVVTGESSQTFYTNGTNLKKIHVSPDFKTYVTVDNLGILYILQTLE

[5] = target: T2, Caspase-3 (Homo sapiens, UniProt P42574); assay: caspase-3 inhibitors as off-family protease, SAR follow-up, selectivity assay for SENP protease inhibitor project, biochemical, luminescence, set 2 (AID 588599); format: functional
T2 sequence (P42574 whole entry): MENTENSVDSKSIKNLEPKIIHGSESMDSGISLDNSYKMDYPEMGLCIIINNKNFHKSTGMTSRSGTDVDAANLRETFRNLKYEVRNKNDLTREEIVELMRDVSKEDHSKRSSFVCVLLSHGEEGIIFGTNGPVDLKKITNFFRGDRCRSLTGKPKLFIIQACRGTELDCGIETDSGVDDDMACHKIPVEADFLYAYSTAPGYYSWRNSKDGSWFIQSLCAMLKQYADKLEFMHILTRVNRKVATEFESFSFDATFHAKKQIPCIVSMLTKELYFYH

[6] = target: T3, Sentrin-specific protease 8 (Homo sapiens, UniProt Q96LD8); assay: SENP8 protease inhibitors, SAR follow-up, biochemical, luminescence, set 2 (AID 588601); format: functional
T3 sequence (Q96LD8 whole entry): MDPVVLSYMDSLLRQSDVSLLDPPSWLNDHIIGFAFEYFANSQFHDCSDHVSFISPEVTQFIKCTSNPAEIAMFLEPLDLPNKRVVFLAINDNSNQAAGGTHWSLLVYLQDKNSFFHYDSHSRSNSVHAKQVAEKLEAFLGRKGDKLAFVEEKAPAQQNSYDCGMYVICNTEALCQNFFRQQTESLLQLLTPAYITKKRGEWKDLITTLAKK

[7] = target: T4, Sentrin-specific protease 7 (Homo sapiens, UniProt Q9BQF6); assay: SENP7 protease inhibitors, SAR follow-up, biochemical, luminescence, set 2 (AID 588600); format: functional
T4 sequence (Q9BQF6 whole entry): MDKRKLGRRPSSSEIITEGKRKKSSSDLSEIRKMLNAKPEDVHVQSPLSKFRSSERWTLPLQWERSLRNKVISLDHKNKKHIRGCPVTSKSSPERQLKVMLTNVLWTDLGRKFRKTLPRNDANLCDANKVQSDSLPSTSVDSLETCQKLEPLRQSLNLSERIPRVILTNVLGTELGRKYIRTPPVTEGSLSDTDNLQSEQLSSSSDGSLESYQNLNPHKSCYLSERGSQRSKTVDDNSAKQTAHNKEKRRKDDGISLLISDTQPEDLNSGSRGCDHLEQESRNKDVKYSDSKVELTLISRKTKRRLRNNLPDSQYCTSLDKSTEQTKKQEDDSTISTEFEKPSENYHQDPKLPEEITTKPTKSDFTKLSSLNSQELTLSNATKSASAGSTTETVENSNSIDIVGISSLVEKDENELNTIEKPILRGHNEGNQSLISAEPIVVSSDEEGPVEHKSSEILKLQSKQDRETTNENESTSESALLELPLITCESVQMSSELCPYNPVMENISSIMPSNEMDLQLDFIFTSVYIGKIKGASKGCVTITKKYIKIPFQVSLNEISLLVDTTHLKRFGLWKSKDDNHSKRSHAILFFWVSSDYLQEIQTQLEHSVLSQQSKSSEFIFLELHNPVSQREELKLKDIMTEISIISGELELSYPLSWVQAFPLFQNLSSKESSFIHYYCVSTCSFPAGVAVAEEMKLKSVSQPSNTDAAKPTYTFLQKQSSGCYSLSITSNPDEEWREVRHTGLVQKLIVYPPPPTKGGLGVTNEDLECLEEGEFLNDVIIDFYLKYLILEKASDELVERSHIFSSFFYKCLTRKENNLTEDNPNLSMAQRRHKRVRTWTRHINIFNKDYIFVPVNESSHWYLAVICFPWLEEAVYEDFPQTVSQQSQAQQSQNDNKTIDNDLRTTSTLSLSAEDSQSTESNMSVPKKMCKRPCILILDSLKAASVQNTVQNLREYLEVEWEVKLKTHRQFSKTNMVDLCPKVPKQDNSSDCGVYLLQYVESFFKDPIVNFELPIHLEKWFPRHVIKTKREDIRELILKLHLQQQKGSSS

[8] = target: T5, Sentrin-specific protease 6 (Homo sapiens, UniProt Q9GZR1); assay: SENP6 protease inhibitors, SAR follow-up, biochemical, luminescence, set 2 (AID 588598); format: functional
T5 sequence (Q9GZR1 whole entry): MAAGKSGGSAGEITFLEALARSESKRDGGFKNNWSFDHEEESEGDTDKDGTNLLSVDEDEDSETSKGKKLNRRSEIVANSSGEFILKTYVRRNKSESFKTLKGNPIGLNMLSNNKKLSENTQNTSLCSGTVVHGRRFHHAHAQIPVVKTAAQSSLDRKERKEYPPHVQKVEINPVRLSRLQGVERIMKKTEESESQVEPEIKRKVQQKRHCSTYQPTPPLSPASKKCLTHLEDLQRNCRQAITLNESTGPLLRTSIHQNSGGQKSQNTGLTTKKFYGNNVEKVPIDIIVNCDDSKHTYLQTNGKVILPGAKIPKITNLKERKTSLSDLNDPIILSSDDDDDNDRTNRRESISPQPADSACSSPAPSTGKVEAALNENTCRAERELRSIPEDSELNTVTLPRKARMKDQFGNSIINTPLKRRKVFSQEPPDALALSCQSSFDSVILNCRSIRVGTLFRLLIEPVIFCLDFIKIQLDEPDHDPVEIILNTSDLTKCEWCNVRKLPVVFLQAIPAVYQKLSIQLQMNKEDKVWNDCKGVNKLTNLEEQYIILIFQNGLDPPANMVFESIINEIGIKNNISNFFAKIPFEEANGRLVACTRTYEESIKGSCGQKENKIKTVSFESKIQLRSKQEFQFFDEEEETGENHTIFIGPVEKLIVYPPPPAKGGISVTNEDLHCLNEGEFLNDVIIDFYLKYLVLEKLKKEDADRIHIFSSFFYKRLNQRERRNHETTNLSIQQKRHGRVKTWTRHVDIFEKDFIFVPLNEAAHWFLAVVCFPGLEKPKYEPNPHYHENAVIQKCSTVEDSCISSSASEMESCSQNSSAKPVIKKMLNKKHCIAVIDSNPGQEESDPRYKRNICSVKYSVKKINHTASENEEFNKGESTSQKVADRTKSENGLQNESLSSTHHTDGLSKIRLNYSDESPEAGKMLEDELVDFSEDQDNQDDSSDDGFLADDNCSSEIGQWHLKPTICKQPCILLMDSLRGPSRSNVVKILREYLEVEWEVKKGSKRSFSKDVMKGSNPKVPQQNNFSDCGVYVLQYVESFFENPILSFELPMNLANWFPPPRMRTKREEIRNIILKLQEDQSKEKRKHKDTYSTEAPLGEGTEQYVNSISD

[9] = target: Aurora kinase A (Homo sapiens, UniProt O14965); format: functional;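 note: value from the Navigating the Kinome kinase panel profiling, panel entry STK6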
Sequence of Aurora kinase A (O14965 whole entry): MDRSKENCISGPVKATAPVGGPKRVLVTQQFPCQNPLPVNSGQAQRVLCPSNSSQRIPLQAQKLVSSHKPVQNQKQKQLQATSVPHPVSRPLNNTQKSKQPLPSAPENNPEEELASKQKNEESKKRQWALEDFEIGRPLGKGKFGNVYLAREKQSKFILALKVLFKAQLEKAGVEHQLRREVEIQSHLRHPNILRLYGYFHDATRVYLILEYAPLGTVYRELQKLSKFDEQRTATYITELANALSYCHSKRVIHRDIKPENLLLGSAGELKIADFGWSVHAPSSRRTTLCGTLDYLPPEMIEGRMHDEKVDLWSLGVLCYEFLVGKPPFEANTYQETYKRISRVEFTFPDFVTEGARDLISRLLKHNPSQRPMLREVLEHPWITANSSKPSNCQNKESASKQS

[10] = target: Aurora kinase B (Homo sapiens, UniProt Q96GD4); format: functional
Sequence of Aurora kinase B (Q96GD4 whole entry): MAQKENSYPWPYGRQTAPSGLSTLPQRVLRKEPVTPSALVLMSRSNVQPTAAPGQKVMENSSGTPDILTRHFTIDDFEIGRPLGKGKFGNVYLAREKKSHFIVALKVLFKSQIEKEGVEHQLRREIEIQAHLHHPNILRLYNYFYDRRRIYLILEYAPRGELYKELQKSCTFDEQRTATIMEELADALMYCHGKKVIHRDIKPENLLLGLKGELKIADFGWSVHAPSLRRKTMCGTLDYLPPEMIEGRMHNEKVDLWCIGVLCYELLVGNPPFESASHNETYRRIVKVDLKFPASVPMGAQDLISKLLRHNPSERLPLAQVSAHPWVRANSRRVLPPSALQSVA

[11] = inhibitors of intracellular T. cruzi replication, confirmation, NIH3T3 host cells, beta-gal luminescence (AID 2044); format: functional, cell-based;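 note: intracellular parasites grown in NIH/3T3 mouse fibroblasts as host cells; luminescent beta-galactosidase reporter signal from transgenic T. cruzi replicating inside host cells; inhibitors lower the luminescence signal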
[12] = cytotoxicity toward NIH3T3 fibroblasts, dose response, counter-screen, cell-based, ATP luminescence, mouse fibroblasts (AID 2010); format: functional;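 note: cells exposed to compound for about 90 hours before reading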
[13] = target: T3, Sentrin-specific protease 8; assay: SENP8 protease inhibitors, SAR follow-up, biochemical, luminescence (AID 504501); format: functional
[14] = target: T2, Caspase-3; assay: SAR Analysis of small molecule inhibitors of Sentrin-specific proteases (SENPs) using a Caspase-3 Selectivity assay. [Related pubchem assays (depositor defined):AID2540, AID2599, AID434973, AID489001]; format: functional
[15] = target: T5, Sentrin-specific protease 6; assay: SAR Analysis of small molecule inhibitors of Sentrin-specific protease 6 (SENP6) using a Luminescent assay. [Related pubchem assays (depositor defined):AID2582, AID2599]; format: functional
[16] = target: T4, Sentrin-specific protease 7; assay: SENP7 protease inhibitors, SAR follow-up, biochemical, luminescence (AID 504497); format: functional

COC(=O)C[C@](O)(CCC(C)(C)O)C(=O)O[C@@H]1C(OC)=C[C@]23CCCN2CCc2cc4c(cc2[C@H]13)OCO4 [HARRINGTONINE]
GI50 [1]: 0.738 µM (active)
GI50 [2]: 0.0661 µM (active)
GI50 [3]: 0.0252 µM (active)

CC(C)(C)c1ccc(C(=O)NC(CCc2ccccc2)CC(=O)O)cc1 (configuration not stated)
EC50 [4]: > 100 µM (inactive)

COC1OCC(O)C(NC(=O)N(C)N=O)C1O (configuration not stated)
GI50 [1]: > 100 µM (inactive)
GI50 [2]: > 100 µM (inactive)
GI50 [3]: > 100 µM (inactive)

Cc1ccc(N2CC(NC(=O)C(=O)c3c(C)[nH]c4ccccc34)CC2=O)cc1 (configuration not stated)
IC50 [5]: > 99 µM (inactive)
IC50 [6]: > 99 µM (inactive)
IC50 [7]: > 99 µM (inactive)
IC50 [8]: > 99 µM (inactive)

COCCOC1CCC(n2nc(-c3ccc(Nc4nc5cc(Br)cc(C)c5o4)cc3)c3c(N)ncnc32)CC1 (configuration not stated)
Ki [9]: 0.00398 µM (active)
Ki [10]: 0.00316 µM (active)

O=C(Nc1nc2ccc(Cl)cc2s1)C1CC1
EC50 [11]: 0.119 µM (active)
EC50 [12]: > 16 µM (not active)
IC50 [13]: > 99 µM (inactive)
IC50 [5]: 28.9 µM (active)
IC50 [6]: 5.97 µM (active)
IC50 [14]: 25 µM (active)
IC50 [7]: 7.46 µM (active)
IC50 [15]: > 99 µM (inactive)
IC50 [8]: 24.6 µM (active)
IC50 [16]: 5.9 µM (active)

CCCCc1ccc2nc(NC(=O)c3sccc3C)sc2c1
IC50 [13]: 0.672 µM (active)
IC50 [14]: 0.541 µM (active)
IC50 [15]: 0.742 µM (active)
IC50 [16]: 0.854 µM (active)
